The record followed here is ChEMBL document CHEMBL3217418, “Design, synthesis and biological activity evaluation of regioisomeric spiro-(indoline-isoxazolidines) in the inhibition of TNF--induced ICAM-1 expression on human endothelial cells” (Medchemcomm, 2012).

Calls of active or inactive are those of the source. The rule behind the calls is not given here.

The nature of data set [1]: Cytotoxicity against HUVEC assessed as cell viability after 24 hrs by MTT assay relative to control. The format is cell-based. Details: concentration or dose not given beside the values. The following applies: human, HUVEC cells; read-out: Activity. For orientation: Tetrazolium assays rely on reduction of a dye to a coloured formazan, in cell work by metabolically active cells.

Another data set relates to HUVEC. Put plainly: Antiinflammatory activity in HUVEC assessed as inhibition of TNFalpha-induced ICAM-1 expression incubated for 2 hrs prior to TNFalpha challenge measured after 16 hrs by ELISA. The class given is functional, cell-based. Conditions: Homo sapiens. A general note: ELISA stands for enzyme-linked immunosorbent assay.
Data set [2] in a line: Cytotoxicity against HUVEC assessed as concentration at which viability is > 95 % after 24 hrs by MTT assay. The format is cell-based. The following applies: human, HUVEC cells; read-out: MTD.
Data set [3] deals with Transcription factor p65 (Homo sapiens) (UniProt Q04206). Put plainly: Inhibition of NF-kappaB p65 subunit translocation from cytoplasm to nucleus in HUVEC assessed as NF-kappaB p65 subunit level in nuclear extract at 1 to 100 uM incubated for 2 hrs prior to TNFalpha challenge measured after 30 mins by densitometry.
Chain of Transcription factor p65 (Homo sapiens) (Q04206 whole entry): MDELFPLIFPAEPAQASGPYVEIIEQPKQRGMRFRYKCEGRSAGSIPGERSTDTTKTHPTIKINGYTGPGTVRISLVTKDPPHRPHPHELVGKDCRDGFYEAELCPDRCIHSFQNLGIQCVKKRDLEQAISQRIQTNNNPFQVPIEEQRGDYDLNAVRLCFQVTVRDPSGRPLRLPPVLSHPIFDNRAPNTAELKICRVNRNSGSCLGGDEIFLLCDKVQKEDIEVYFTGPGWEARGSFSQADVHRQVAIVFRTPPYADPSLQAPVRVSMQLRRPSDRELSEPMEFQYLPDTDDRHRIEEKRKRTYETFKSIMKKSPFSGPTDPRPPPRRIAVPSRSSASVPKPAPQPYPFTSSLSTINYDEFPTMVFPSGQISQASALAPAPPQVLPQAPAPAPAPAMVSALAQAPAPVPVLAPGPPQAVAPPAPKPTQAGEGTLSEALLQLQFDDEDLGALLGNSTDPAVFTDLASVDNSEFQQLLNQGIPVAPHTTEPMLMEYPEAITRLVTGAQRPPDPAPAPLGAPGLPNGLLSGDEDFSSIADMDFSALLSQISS
Data set [4] shares this target. Kind of data set: Inhibition of NF-kappaB p65 subunit translocation from cytoplasm to nucleus in HUVEC at 1 to 100 uM incubated for 2 hrs prior to TNFalpha challenge measured after 30 mins by SDS-PAGE.
The next data set deals with Neutrophil. Kind of data set: Inhibition of human neutrophil adhesion to human endothelial cells incubated for 2 hrs prior to TNFalpha challenge measured after 6 hrs by spectroscopy. The class given is functional, cell-based.
Data set [5] deals with Transcription factor p65 (Homo sapiens) (UniProt Q04206). Put plainly: Inhibition of NF-kappaB p65 subunit translocation from cytoplasm to nucleus in HUVEC assessed as NF-kappaB p65 subunit level in cytoplasm at 1 to 100 uM incubated for 2 hrs prior to TNFalpha challenge measured after 30 mins by densitometry.
Data set [6] has the same target. Kind of data set: Inhibition of NF-kappaB p65 subunit translocation from cytoplasm to nucleus in HUVEC at 100 uM incubated for 2 hrs prior to TNFalpha challenge measured after 30 mins by SDS-PAGE.

For orientation: IC50 means the point on the concentration scale where inhibition reaches its midpoint.

Turning to `CCOC(=O)C1ON(c2ccccc2)C(c2ccc(C#N)cc2)C12C(=O)Nc1ccc(F)cc12` (stereo not given), the viability at 24 h in data set [1] was found to be 96%. Besides, in the data set with HUVEC, the IC50 was found to be 48 µM. Further, in data set [2], the MNTC at 24 h turned out to be 110 µM.
Consider `CCOC(=O)C1ON(c2ccccc2)C(c2ccc(F)cc2)C12C(=O)Nc1ccc(F)cc12` (stereo not given), for which the viability at 24 h in data set [1] was 96%. Also, the IC50 in the data set on HUVEC was above 111 µM. In addition, the MNTC at 24 h in data set [2] is 111 µM.
In the case of `CCOC(=O)C1C(c2cccc(F)c2)N(c2ccccc2)OC12C(=O)Nc1ccccc12` (stereo not given), the viability at 24 h in data set [1] amounted to 98%. Also, the IC50 with HUVEC came out at 35 µM. For the same compound, the MNTC at 24 h in data set [2] stood at 116 µM.
`CCOC(=O)C1C(c2cccc(OC)c2OC)N(c2ccccc2)OC12C(=O)Nc1ccc(F)cc12` (stereo not given): in data set [1], the viability at 24 h is 99%. For the same compound, the IC50 with HUVEC was determined as 27 µM. Moreover, the MNTC at 24 h in data set [2] came out at 102 µM.
The matching figures for `CCOC(=O)C1ON(c2ccccc2)C(c2ccc(C(F)(F)F)cc2)C12C(=O)Nc1ccc(F)cc12` (stereo not given): 96%, 57 µM and 100 µM.
Consider `CCOC(=O)C1ON(c2ccccc2)C(c2cccc([N+](=O)[O-])c2)C12C(=O)Nc1ccccc12` (stereo not given), for which the viability at 24 h in data set [1] came to 96%. For the same compound, the IC50 in the data set with HUVEC came out at 169 µM. Further, the MNTC at 24 h in data set [2] came to 218 µM.
As to `CCOC(=O)C1C(c2cccc([N+](=O)[O-])c2)N(c2ccccc2)OC12C(=O)Nc1ccccc12` (stereo not given), the viability at 24 h in data set [1] stood at 98%. For the same compound, in the data set with HUVEC, the IC50 was 45 µM. Also, in data set [2], the MNTC at 24 h is 218 µM.
The matching figures for `CCOC(=O)C1ON(c2ccccc2)C(c2cccc(F)c2)C12C(=O)Nc1ccc(F)cc12` (stereo not given): 95%, 66 µM and 111 µM.
As to `CCOC(=O)C1C(c2ccc(Br)cc2)N(c2ccccc2)OC12C(=O)Nc1ccccc12` (stereo not given), in data set [1], the viability at 24 h was determined as 96%. In addition, the IC50 with HUVEC stood at 41 µM. Further, the MNTC at 24 h in data set [2] is 203 µM.
For `CCOC(=O)C1ON(c2ccccc2)C(c2ccc(Cl)cc2)C12C(=O)Nc1ccc(F)cc12` (stereo not given), in data set [1], the viability at 24 h came to 96%. Also, the IC50 with HUVEC was 54 µM. Further, in data set [2], the MNTC at 24 h is 107 µM.
On to `CCOC(=O)C1C(c2ccc(C#N)cc2)N(c2ccccc2)OC12C(=O)Nc1ccc(F)cc12` (stereo not given), for which the viability at 24 h in data set [1] was determined as 98%. Besides, the IC50 in the data set with HUVEC was 49 µM. Also, the MNTC at 24 h in data set [2] stood at 110 µM.
As to `CCOC(=O)C1ON(c2ccccc2)C(c2cc(OC)c(OC)c(OC)c2)C12C(=O)Nc1ccc(F)cc12` (stereo not given), in data set [1], the viability at 24 h turned out to be 97%. Besides, the IC50 in the data set with HUVEC was 29 µM. Besides, the MNTC at 24 h in data set [2] turned out to be 96 µM.
The like results for `CCOC(=O)C1ON(c2ccccc2)C(c2ccc([N+](=O)[O-])cc2)C12C(=O)Nc1ccccc12` (stereo not given) were, in that order, 97%, above 217 µM and 218 µM.
The like results for `CCOC(=O)C1ON(c2ccccc2)C(c2cccc(Br)c2)C12C(=O)Nc1ccccc12` (stereo not given) were, in that order, 95%, 57 µM and 203 µM.
`CCOC(=O)C1ON(c2ccccc2)C(c2cccc(C)c2)C12C(=O)Nc1ccccc12` (stereo not given): in data set [1], the viability at 24 h came to 98%. In addition, the IC50 in the data set on HUVEC stood at 35 µM. Besides, in data set [2], the MNTC at 24 h is 234 µM.
Consider `CCOC(=O)C1ON(c2ccccc2)C(c2ccc(OC)cc2)C12C(=O)Nc1ccc(F)cc12` (stereo not given), for which the viability at 24 h in data set [1] was found to be 96%. Further, the IC50 in the data set on HUVEC came to 42 µM. For the same compound, in data set [2], the MNTC at 24 h amounted to 108 µM.
The like results for `CCOC(=O)C1ON(c2ccccc2)C(c2ccc(Br)cc2)C12C(=O)Nc1ccccc12` (stereo not given) were, in that order, 98%, 51 µM and 203 µM.
The like results for `CCOC(=O)C1ON(c2ccccc2)C(c2ccc(Br)cc2)C12C(=O)Nc1ccc(F)cc12` (stereo not given) were, in that order, 98%, 35 µM and 98 µM.
As for `CCOC(=O)C1C(c2ccc(C)cc2)N(c2ccccc2)OC12C(=O)Nc1ccccc12` (stereo not given), in data set [1], the viability at 24 h amounted to 96%. In addition, the concentration for half-maximal inhibition (IC50) in the data set with HUVEC was determined as 31 µM. Also, the MNTC at 24 h in data set [2] worked out at 234 µM.
As to `CCOC(=O)C1ON(c2ccccc2)C(c2ccccc2F)C12C(=O)Nc1ccc(F)cc12` (stereo not given), in data set [1], the viability at 24 h was determined as 96%. The IC50 in the data set on HUVEC was found to be 51 µM. In data set [2], the MNTC at 24 h turned out to be 111 µM.
In the case of `CCOC(=O)C1ON(c2ccccc2)C(c2cccc(Cl)c2)C12C(=O)Nc1ccccc12` (stereo not given), the viability at 24 h in data set [1] was 96%. Further, the IC50 with HUVEC was found to be 25 µM. For the same compound, in data set [2], the MNTC at 24 h was found to be 223 µM.
For `CCOC(=O)C1ON(c2ccccc2)C(c2ccc(OCC)cc2)C12C(=O)Nc1ccc(F)cc12` (stereo not given), the viability at 24 h in data set [1] is 97%. Besides, the IC50 with HUVEC worked out at 12 µM; in the data set on Neutrophil it was 12.5 µM. Besides, the MNTC at 24 h in data set [2] came to 105 µM. Further, the inhibition entry in data set [3] and in data set [5] was “Active” in each case. The inhibition result (in data set [4]; in the data set on Neutrophil) was “Dose-dependent effect” in each case.
Turning to `CCOC(=O)C1C(c2ccc(F)cc2)N(c2ccccc2)OC12C(=O)Nc1ccccc12` (stereo not given), the viability at 24 h in data set [1] worked out at 96%. The concentration for half-maximal inhibition (IC50) with HUVEC turned out to be 146 µM. Also, the MNTC at 24 h in data set [2] was found to be 231 µM.
The matching figures for `CCOC(=O)C1ON(c2ccccc2)C(c2cccc(OC)c2OC)C12C(=O)Nc1ccc(F)cc12` (stereo not given): 98%, 32 µM and 102 µM.
The like results for `CCOC(=O)C1C(c2ccc([N+](=O)[O-])cc2)N(c2ccccc2)OC12C(=O)Nc1ccccc12` (stereo not given) were, in that order, 97%, above 217 µM and 218 µM.
The matching figures for `O=C(/C=C/C=C/c1ccc2c(c1)OCO2)N1CCCCC1` [PIPERINE]: 98%, 100 µM and 250 µM.
`CCOC(=O)C1ON(c2ccccc2)C(c2ccc(F)cc2)C12C(=O)Nc1ccccc12` (stereo not given): the viability at 24 h in data set [1] worked out at 96%. Besides, the half-inhibitory concentration (IC50) in the data set with HUVEC amounted to 51 µM. Also, the MNTC at 24 h in data set [2] stood at 116 µM.
The matching figures for `CCOC(=O)C1C(c2ccc(Cl)cc2)N(c2ccccc2)OC12C(=O)Nc1ccccc12` (stereo not given): 96%, above 223 µM and 223 µM.
As to `CCOC(=O)C1ON(c2ccccc2)C(c2ccc(N(C)C)cc2)C12C(=O)Nc1ccc(F)cc12` (stereo not given), in data set [1], the viability at 24 h is 96%. Moreover, in the data set with HUVEC, the IC50 came out at 26 µM. Also, the MNTC at 24 h in data set [2] worked out at 110 µM.
Take `CCOC(=O)C1ON(c2ccccc2)C(c2ccc(Cl)cc2)C12C(=O)Nc1ccccc12` (stereo not given): in data set [1], the viability at 24 h stood at 96%. Further, in the data set on HUVEC, the IC50 stood at 147 µM. Moreover, the MNTC at 24 h in data set [2] amounted to 223 µM.
The matching figures for `CCOC(=O)C1ON(c2ccccc2)C(c2ccc(C)cc2)C12C(=O)Nc1ccccc12` (stereo not given): 99%, 52 µM and 234 µM.
As to `CCOC(=O)C1ON(c2ccccc2)C(c2cccc(F)c2)C12C(=O)Nc1ccccc12` (stereo not given), the viability at 24 h in data set [1] turned out to be 98%. For the same compound, the IC50 in the data set on HUVEC was above 162 µM. Moreover, in data set [2], the MNTC at 24 h turned out to be 231 µM.
The like results for `CCOC(=O)C1ON(c2ccccc2)C(c2ccc(F)c(F)c2)C12C(=O)Nc1ccc(F)cc12` (stereo not given) were, in that order, 95%, 62 µM and 107 µM.
Regarding `CCOC(=O)C1ON(c2ccccc2)C(c2cccc(C)c2)C12C(=O)Nc1ccc(F)cc12` (stereo not given), the viability at 24 h in data set [1] was 98%. The IC50 in the data set on HUVEC was determined as 45 µM. The MNTC at 24 h in data set [2] turned out to be 112 µM.
The like results for `CCOC(=O)C1C(c2cccc(C)c2)N(c2ccccc2)OC12C(=O)Nc1ccccc12` (stereo not given) were, in that order, 96%, 57 µM and 234 µM.
As to `S=C(S)N1CCCC1`, the inhibition entry in data set [6] was “Active”.
In the case of `CCOC(=O)C1C(c2cccc(Cl)c2)N(c2ccccc2)OC12C(=O)Nc1ccccc12` (stereo not given), the viability at 24 h in data set [1] is 97%. In addition, the IC50 in the data set with HUVEC is 35 µM. For the same compound, the MNTC at 24 h in data set [2] amounted to 223 µM.
The matching figures for `CCOC(=O)C1C(c2cccc(Br)c2)N(c2ccccc2)OC12C(=O)Nc1ccccc12` (stereo not given): 95%, 100 µM and 203 µM.
As for `CCOC(=O)C1ON(c2ccccc2)C(c2ccc([N+](=O)[O-])cc2)C12C(=O)Nc1ccc(F)cc12` (stereo not given), the viability at 24 h in data set [1] came to 97%. The IC50 with HUVEC stood at 32 µM. Further, the MNTC at 24 h in data set [2] was found to be 105 µM.
